{"source": "patent EP4733306A1", "about": "“NOVEL MODIFIED TRINUCLEOTIDE CAPPING DERIVATIVE, AND MRNA INTO WHICH CAPPING DERIVATIVE IS INTRODUCED” (Elonova Co., Ltd., priority 2023, dated 2025)", "key": {"[1]": {"tested_on": "HEK 293 cells", "assay": "Luciferase (antigen protein) expression from capped Luciferase mRNA transfected into HEK 293 cells, luminescence readout", "format": "cell-based", "method": "HEK 293 cells were cultured in a 60 mL culture plate containing DMEM supplemented with 10% FBS and 1% pen/strep. On the day prior to transfection, the cells were detached using trypsin and resuspended in new medium. The cells were seeded into a 96-well plate. On the next day, when the cells reached 70% confluence, the transfection mixture was prepared and transfection was performed.\nThe purified mRNA was quantified using a nanodrop spectrophotometer, and the transcription yield for each rNTP combination was compared. For cell transfection, 500 ng of each mRNA was collected and mixed with 5 µL of Opti-MEM. Separately, 0.5 µL of Lipofectamine was mixed with 5 µL of Opti-MEM in another tube and incubated at room temperature for 10 minutes. Then, the mRNA and Lipofectamine mixtures were combined in the same tube and incubated for an additional 5 minutes at room temperature. Finally, the transfection mixture was added to the cells and incubated for 24 hours.\n(§1) After the incubation period, the medium was removed, and the cells were lysed using 50 µL of 1X lysis buffer. The cell lysate was transferred into microcentrifuge tubes. For luciferase luminescence analysis, 100 µL of luciferin substrate was added to each sample in a 96-well white plate. Then, 20 µL of each cell lysate sample was added and mixed by pipetting. Finally, the luminescence of luciferase was recorded using a luminometer instrument.\nHEK 293 cells were cultured in a 60 mL culture plate containing DMEM supplemented with 10% FBS and 1% pen/strep. On the day prior to transfection, the cells were detached using trypsin and resuspended in fresh medium. The cells were then seeded in a 96-well plate. On the following day, when the cells reached 70% confluence, the transfection mixture was prepared and transfection was performed.\nas §1, with “taken for” for “added to”"}, "[2]": {"biological_target": "T7 RNA polymerase (Escherichia phage T7, UniProt P00573)", "sequence (P00573 whole entry)": "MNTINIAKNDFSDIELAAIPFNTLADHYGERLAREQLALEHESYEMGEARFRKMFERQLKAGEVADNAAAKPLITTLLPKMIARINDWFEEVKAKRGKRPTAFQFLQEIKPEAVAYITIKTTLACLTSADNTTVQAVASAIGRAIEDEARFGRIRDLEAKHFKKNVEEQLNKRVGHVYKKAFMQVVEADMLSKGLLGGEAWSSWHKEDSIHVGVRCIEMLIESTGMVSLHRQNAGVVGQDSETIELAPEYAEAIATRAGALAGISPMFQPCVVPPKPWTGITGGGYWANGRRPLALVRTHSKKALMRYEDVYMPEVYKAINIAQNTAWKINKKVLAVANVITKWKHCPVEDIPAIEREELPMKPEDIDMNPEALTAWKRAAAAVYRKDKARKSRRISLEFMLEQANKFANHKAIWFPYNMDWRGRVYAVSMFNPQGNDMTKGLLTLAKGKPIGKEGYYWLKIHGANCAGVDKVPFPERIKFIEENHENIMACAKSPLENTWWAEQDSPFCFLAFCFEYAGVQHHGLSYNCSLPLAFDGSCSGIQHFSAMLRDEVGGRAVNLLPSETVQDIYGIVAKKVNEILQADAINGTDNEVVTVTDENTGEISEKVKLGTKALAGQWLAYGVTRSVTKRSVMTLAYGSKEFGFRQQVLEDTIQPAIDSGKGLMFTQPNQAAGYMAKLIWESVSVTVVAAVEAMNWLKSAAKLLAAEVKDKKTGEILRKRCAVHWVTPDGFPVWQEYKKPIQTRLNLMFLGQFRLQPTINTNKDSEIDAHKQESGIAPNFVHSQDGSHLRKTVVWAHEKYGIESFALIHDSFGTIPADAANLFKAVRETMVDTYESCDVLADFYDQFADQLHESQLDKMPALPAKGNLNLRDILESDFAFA", "assay": "In vitro transcription of Luciferase template with T7 RNA polymerase in the presence of the capping material (gel)", "format": "biochemical", "conditions": "compared with CleanCap (cap 1 commercial)", "method": "The concentration of the luciferase template was measured using a nanodrop spectrophotometer. For each transcription reaction, 100 ng of template in 1 µL was placed into a microcentrifuge tube. Then, 1.5 µL of 10X transcription buffer (400 mM Tris-HCl, 60 mM MgCl2, 10 mM DTT, 20 mM spermidine) and 1.5 µL of 100 mM DTT were added to the tube. rATP, rCTP, and rUTP were each used (1 µL, 10 mM). For cap-dependent transcription of luciferase, rGTP was used (1 µL, 2.5 mM). The ratio of capping material was maintained at four times higher than rGTP so as to provide mRNA capped at ≥80%. Accordingly, 1 µL of capping material (10 mM) was added. RNase inhibitor (0.5 µL, 40 U/µL) and T7 RNA polymerase (1 µL, 50 U/µL) were added. Nuclease-free water (4.5-5.5 µL) was added to bring the final volume of the reaction to 15 µL. In the case of modified rNTPs, 10 mM stock solutions were prepared and the corresponding derivatives were added in place of rCTP and rUTP. The reaction was incubated at 37°C for 1 hour, and after 1 hour, 1.8 µL of 10X DNase I buffer (10 mM Tris-HCl, 2.5 mM MgCl2, 0.5 mM CaCl2) and 1 µL of DNase I (2 U/µL) were added to the reaction and incubated for an additional 15 minutes at 37°C to remove all DNA templates."}, "[3]": {"conditions": "Luciferase mRNA capped with the analog, compared with mRNA introduced with ARCA cap (cap 0) and CleanCap (cap 1 commercial), HEK 293"}, "[4]": {"conditions": "Luciferase mRNA capped with the analog, compared with Luciferase mRNA introduced with CleanCap (Luc mRNA Cap1)"}}, "note": "Entries after “also recorded” stand apart in the source; their conditions may differ."}
{"molecule": "CO[C@@H]1[C@H](OP(=O)(O)OC[C@H]2O[C@@H](n3cnc4c(=O)[nH]c(N)nc43)[C@H](O)[C@@H]2O)[C@@H](COP(=O)(O)OP(=O)(S)OP(=O)(O)OC[C@H]2O[C@@H](n3c[n+](Cc4ccc(Cl)cc4)c4c([O-])nc(N)nc43)[C@H](O)[C@@H]2O)O[C@H]1n1cnc2c(N)ncnc21", "note": "(single isomer, unassigned) [^4-ClBn7GppspAmpG (D2), Guanosine N7-4-Cl-benzyl β-phosphorothioate trinucleotide Cap1]", "values": [{"measurement": "antigen protein expression efficiency", "setting": "[1]; [3]", "result": "higher"}]}
{"molecule": "CO[C@@H]1[C@H](OP(=O)(O)OC[C@H]2O[C@@H](n3cnc4c(=O)[nH]c(N)nc43)[C@H](O)[C@@H]2O)[C@@H](COP(=O)(O)OP(=O)(O)OC[C@H]2O[C@@H](n3c[n+](Cc4ccc(Cl)cc4)c4c(=O)[nH]c(N)nc43)[C@H](O)[C@@H]2O)O[C@H]1n1cnc2c(N)ncnc21", "note": "[^4-ClBn7GppAmpG, Guanosine N7-4-Cl-benzyl trinucleotide diphosphate Cap1]", "values": [{"measurement": "antigen protein expression efficiency", "setting": "[1]; [3]", "result": "higher"}]}
{"molecule": "CO[C@@H]1[C@H](OP(=O)(O)OC[C@H]2O[C@@H](n3cnc4c(=O)[nH]c(N)nc43)[C@H](O)[C@@H]2O)[C@@H](COP(=O)(O)OP(=O)(O)OC[C@H]2O[C@@H](n3c[n+](Cc4ccccc4)c4c(=O)[nH]c(N)nc43)[C@H](O)[C@@H]2O)O[C@H]1n1cnc2c(N)ncnc21", "note": "[^Bn7GppAmpG, Guanosine N7-benzyl trinucleotide diphosphate Cap1]", "values": [{"measurement": "antigen protein expression efficiency", "setting": "[1]; [3]", "result": "higher"}]}
{"molecule": "CO[C@@H]1[C@H](OP(=O)(O)OC[C@H]2O[C@@H](n3cnc4c(=O)[nH]c(N)nc43)[C@H](O)[C@@H]2O)[C@@H](COP(=O)(O)OP(O)(=S)OP(=O)(O)OC[C@H]2O[C@@H](n3c[n+](Cc4ccccc4)c4c(=O)[nH]c(N)nc43)[C@H](O)[C@@H]2O)O[C@H]1n1cnc2c(N)ncnc21", "note": "(single isomer, unassigned) [^Bn7GppspAmpG (D2), Guanosine N7-benzyl β-phosphorothioate trinucleotide Cap1]", "values": [{"measurement": "antigen protein expression efficiency", "setting": "[1]; [3]", "result": "higher"}]}
{"molecule": "CO[C@@H]1[C@H](OP(=O)(O)OC[C@H]2O[C@@H](n3cnc4c(=O)[nH]c(N)nc43)[C@H](O)[C@@H]2O)[C@@H](COP(=O)(O)OP(=O)(O)OP(=O)(O)OC[C@H]2O[C@@H](n3c[n+](Cc4cccs4)c4c(=O)[nH]c(N)nc43)[C@H](O)[C@@H]2O)O[C@H]1n1cnc2c(N)ncnc21", "note": "[ThioCap1, Guanosine N7-(thiophen-2-ylmethyl) trinucleotide Cap1 analog]", "values": [{"measurement": "antigen protein expression efficiency", "setting": "[1]; [4]", "result": "higher"}, {"measurement": "antigen protein expression efficiency", "setting": "[1]; compared with CleanCap mRNA (Luc mRNA CAP1), in both mRNA using natural rNTPs and mRNA with pseudouridine triphosphate instead of rUTP, HEK 293, 24 hours, listed as ThioCapl", "result": "more efficient; also recorded: higher"}, {"measurement": "transcription efficiency", "setting": "[2]", "result": "similar"}]}
{"molecule": "CO[C@@H]1[C@H](OP(=O)(O)OC[C@H]2O[C@@H](n3cnc4c(=O)[nH]c(N)nc43)[C@H](O)[C@@H]2O)[C@@H](COP(=O)(O)OP(=O)(O)OP(=O)(O)OC[C@H]2O[C@@H](n3c[n+](Cc4ccccc4)c4c(=O)[nH]cnc43)[C@H](O)[C@@H]2O)O[C@H]1n1cnc2c(N)ncnc21", "note": "[^Bn7IpppAmpG, Inosine N7-benzyl trinucleotide Cap1]", "values": [{"measurement": "antigen protein expression efficiency", "setting": "[1]; [3]", "result": "higher"}]}
{"molecule": "CO[C@@H]1[C@H](OP(=O)(O)OC[C@H]2O[C@@H](n3cnc4c(=O)[nH]c(N)nc43)[C@H](O)[C@@H]2O)[C@@H](COP(=O)(O)OP(=O)(O)OP(=O)(O)OC[C@H]2O[C@@H](n3c[n+](Cc4ccccc4)c4c(=O)[nH]c(N)nc43)[C@H](O)[C@@H]2O)O[C@H]1n1cnc2c(N)ncnc21", "note": "[BzCap1, Guanosine N7-benzyl trinucleotide Cap1]", "values": [{"measurement": "antigen protein expression efficiency", "setting": "[1]; [4]", "result": "higher"}, {"measurement": "antigen protein expression efficiency", "setting": "[1]; [3]", "result": "higher"}, {"measurement": "antigen protein expression efficiency", "setting": "[1]; mRNA using natural rNTPs, compared with CleanCap, HEK 293", "result": "more efficient"}]}
{"molecule": "L-Guanosine N7-benzyl trinucleotide Cap1 [^Bn7LGpppAmpG]", "values": [{"measurement": "antigen protein expression efficiency", "setting": "[1]; [3]", "result": "higher"}]}
{"molecule": "CO[C@@H]1[C@H](OP(=O)(O)OC[C@H]2O[C@@H](n3cnc4c(=O)[nH]c(N)nc43)[C@H](O)[C@@H]2O)[C@@H](COP(=O)(O)OP(=O)(O)OP(=O)(O)OC[C@H]2O[C@@H](n3c[n+](Cc4ccc(Cl)cc4)c4c(=O)[nH]c(N)nc43)[C@H](O)[C@@H]2O)O[C@H]1n1cnc2c(N)ncnc21", "note": "[^4-ClBn7GpppAmpG, Guanosine N7-4-Cl-benzyl trinucleotide Cap1]", "values": [{"measurement": "antigen protein expression efficiency", "setting": "[1]; [3]", "result": "higher"}]}
{"molecule": "CO[C@@H]1[C@H](OP(=O)(O)OC[C@H]2O[C@@H](n3cnc4c(=O)[nH]c(N)nc43)[C@H](O)[C@@H]2O)[C@@H](COP(=O)(O)OP(O)(=S)OP(=O)(O)OC[C@H]2O[C@@H](n3c[n+](Cc4ccc(Cl)cc4)c4c(=O)[nH]c(N)nc43)[C@H](O)[C@@H]2O)O[C@H]1n1cnc2c(N)ncnc21", "note": "(single isomer, unassigned) [^4-ClBn7GppspAmpG (D1), Guanosine N7-4-Cl-benzyl β-phosphorothioate trinucleotide Cap1]", "values": [{"measurement": "antigen protein expression efficiency", "setting": "[1]; [3]", "result": "higher"}]}
{"molecule": "CO[C@@H]1[C@H](OP(=O)(O)OC[C@H]2O[C@@H](n3cnc4c(=O)[nH]c(N)nc43)[C@H](O)[C@@H]2O)[C@@H](COP(=O)(O)OP(=O)(O)OP(=O)(O)OC[C@H]2O[C@@H](n3c[n+](Cc4ccccn4)c4c(=O)[nH]c(N)nc43)[C@H](O)[C@@H]2O)O[C@H]1n1cnc2c(N)ncnc21", "note": "[PyCap1, Guanosine N7-(pyridin-2-ylmethyl) trinucleotide Cap1 analog]", "values": [{"measurement": "antigen protein expression efficiency", "setting": "[1]; [4]", "result": "higher"}, {"measurement": "antigen protein expression efficiency", "setting": "[1]; compared with CleanCap mRNA (Luc mRNA CAP1), in both mRNA using natural rNTPs and mRNA with pseudouridine triphosphate instead of rUTP, HEK 293, 24 hours", "result": "higher"}, {"measurement": "antigen protein expression efficiency", "setting": "[1]; compared with CleanCap mRNA (Luc mRNA CAP1), in both mRNA using natural rNTPs and mRNA with pseudouridine triphosphate instead of rUTP, HEK 293, 24 hours, listed as PyCapl", "result": "more efficient"}]}
{"molecule": "CO[C@@H]1[C@H](OP(=O)(O)OC[C@H]2O[C@@H](n3cnc4c(=O)[nH]c(N)nc43)[C@H](O)[C@@H]2O)[C@@H](COP(=O)(O)OP(=O)(O)OP(=O)(O)OC[C@H]2O[C@@H](n3c[n+](Cc4ccccc4)c4c(=O)[nH]c(N)nc43)[C@H](O)[C@@H]2O)O[C@H]1n1cnc2c(NCc3ccccc3)ncnc21", "note": "[^Bn7Gppp^Bn6AmpG, Guanosine N^7, adenosine N^6-dibenzyl trinucleotide Cap1]", "values": [{"measurement": "antigen protein expression efficiency", "setting": "[1]; [3]", "result": "higher"}]}
{"molecule": "CO[C@@H]1[C@H](OP(=O)(O)OC[C@H]2O[C@@H](n3cnc4c(=O)[nH]c(N)nc43)[C@H](O)[C@@H]2O)[C@@H](COP(=O)(O)OP(O)(=S)OP(=O)(O)OC[C@H]2O[C@@H](n3c[n+](Cc4ccccc4)c4c(=O)[nH]c(N)nc43)[C@H](O)[C@@H]2O)O[C@H]1n1cnc2c(N)ncnc21", "note": "(single isomer, unassigned) [^Bn7GppspAmpG (D1), Guanosine N7-benzyl β-phosphorothioate trinucleotide Cap1]", "values": [{"measurement": "antigen protein expression efficiency", "setting": "[1]; [3]", "result": "higher"}]}
